Data as given in patent publication US20150038694A1, “GLUCOSE D[…] TO ARSENIC FOR USE IN THE TREATMENT OF TUMOUR” (XENUS SRL, priority 2012, published 2015).
Entries after “also recorded” stand apart in the source; their conditions may differ.

What was measured:
[1] = test system: cellular line of human neuroblastoma (SK-N-BE); experiment: MTT test (reduction of tetrazolium salts) on human neuroblastoma cells; format: cell-based; conditions: for reduction of the cell survival (formazan absorbance data): final concentrations 10-30-50-100 and 200 μM, forty-eight, seventy-two and ninety-six hours, absorbance at 570 nm; for morphologic changes visible with an optical microscope (loss of adherence to the plate, roundish shape with irregular outlines): treated cells
From the text: (§1) The compound GD152.186 (PM 449,4) produced by means of above mentioned synthesis process, has been tested in a series of preclinical testing on cellular lines of human tumors, and in particular on a cellular line of human neuroblastoma (SK-N-BE) and on a cellular line of human promyelokytic leukemia (HL60).
The culture medium used for growing the SK-N-BE cells is DMEM High Glucose (Dulbecco's Modified Eagle Medium) with 10% FBS (fetal bovine serum), 1% L-Glutamine and 1% Penicillin/Streptomycin antibiotics.
(§2) As a positive control, arsenic trioxide (As2O3, Sigma-Aldrich) has been used, as its activity has already been tested on cellular lines of human neuroblastoma and human promyelokytic leukemia.
(§3) The compound GD152.186 has been dissolved in sterile water so as to reach the final concentrations of 100-300-500-1000-2000 μM.
(§4) The test used for evaluating the persistence of tumor cells after the contact with said compound GD152.186 is the MTT test (reduction of tetrazolium salts).
Said test is based on the ability of the mitochondrial respiratory enzyme of the cells, usually called succinate tetrazolium reductase, of reducing a tetrazolium salt (3-[4,5-dimethylthiazol-2-yl]-2,5-diphenyltetrazolium bromide (MTT, Sigma Aldrich)) into an insoluble compound of blue colour, usually called formazan.
Said reduction process occurs only in living cells and not in dead or damaged ones, consequently, the amount of formazan produced is directly proportional to the number of cells metabolically active in the tested sample.
96-well plates have been used for performing the tests, wherein in each well 5.000 (SK-N-BE) cells or 50.000 (HL60) cells have been sown, suspended in 180 μL of medium and then incubated at 37° C. and 5% CO2.
Forty-eight hours later, the cells have been treated with 20 μL of growing concentrations (in six replicates) of arsenic trioxide (100-300-500-1000 μM) and of GD152.186 compound (100-300-500-1000-2000 μM), so as to obtain inside each single well the final concentrations of 10-30-50-100 and 200 μM.
To one six-well column no compound is added but only 20 μL of sterile water, for following the natural growth of the cells.
The plates are incubated again for forty-eight, seventy-two and ninety-six hours, at the end thereof the test is performed.
To each single well 20 μL of MTT solution (5 mg·m-1 in sterile […]) have been added, giving an incubation time of three hours, functional to the formation of formazan.
Then, the supernatant is removed from each well and 200 μL of DMSO are added.
After about ten minutes the concentration level of formazan has been taken by means of a spectrophotometer set at a wave length of 570 nm.

[2] = test system: cellular line of human promyelokytic leukemia (HL60); experiment: MTT test (reduction of tetrazolium salts) on human promyelokytic leukemia cells; format: cell-based; conditions: increasing concentrations
Description: as §1
Instead, the HL60 cells grow in suspension at a temperature of 37° C. and in 5% CO2, and the culture medium used is RPMI 1640 with 10% FBS (fetal bovine serum), 1% L-Glutamine and 1% Penicillin/Streptomycin antibiotics.
as §2, §3, §4
Said test is based on the ability of the mitochondrial respiratory enzyme of the cells, usually called succinate tetrazolium reductase, of reducing a tetrazolium salt (3-[4,5-dimethylthiazol-2-yl]-2,5-diphenyltetrazolium bromide (MTT, Sigma Aldrich)) into an insoluble compound of blue colour, usually called formazan. […]

Compound	reduction of the cell survival (formazan absorbance data) [1]	morphologic changes visible with an optical microscope (loss of adherence to the plate, roundish shape with irregular outlines) [1]	reduction of the cell survival (formazan absorbance data), HL60 cells [2]
OC[C@H]1O[C@H](CCNc2ccc([As]3SCCS3)cc2)[C@H](O)[C@@H](O)[C@@H]1O [GD152.186]	reduction of the cell survival is directly depending on the dosage of the GD152.186 compound and on the time of exposure; also recorded: most visible when the cells have come into contact with high concentrations (100-200 μM)	morphologic changes have been surprisingly detected	reduction of the cell survival
arsenic trioxide [reference compound]	reduction of the cell survival is strictly dependent on the arsenic trioxide dosage and on the time of exposure	morphologic changes have been found	reduction of the cell survival
